The NIST ThermoML archive (doi:10.1021/acs.jced.6b00606)
± gives the expanded uncertainty stated by the source.

Assay: xn = mol fraction of the nth substance listed
Details: 100 kPa, Liquid; for speed of sound: Frequency=3 MHz, Sing-around technique in a fixed-path interferometer; for mass density: Vibrating tube method

O=C1CCCCC1 [cyclohexanone] + C1CCOCC1
Details | mass density, 293.15 K [kg/m3] | mass density, 298.15 K [kg/m3] | mass density, 303.15 K [kg/m3] | mass density, 308.15 K [kg/m3] | speed of sound, 293.15 K [m/s] | speed of sound, 298.15 K [m/s] | speed of sound, 303.15 K [m/s] | speed of sound, 308.15 K [m/s]
x2 = 0.1175 | 941.72 ± 1 | 937.26 ± 1 | 932.48 ± 1 | 927.65 ± 1 | 1411.4 ± 1.3 | 1394.5 ± 1.3 | 1373.6 ± 1.3 | 1353.2 ± 1.3
x2 = 0.1586 | 939.66 ± 1 | 935.2 ± 1 | 930.42 ± 1 | 925.6 ± 1 | 1404.6 ± 1.3 | 1387.3 ± 1.3 | 1366.3 ± 1.3 | 1345.6 ± 1.3
x2 = 0.1952 | 937.78 ± 1 | 933.32 ± 1 | 928.55 ± 1 | 923.74 ± 1 | 1398.7 ± 1.3 | 1381 ± 1.3 | 1359.7 ± 1.3 | 1339.1 ± 1.3
x2 = 0.2471 | 935.05 ± 1 | 930.59 ± 1 | 925.82 ± 1 | 921.01 ± 1 | 1390.5 ± 1.3 | 1372.1 ± 1.3 | 1350.7 ± 1.3 | 1329.8 ± 1.3
x2 = 0.2843 | 933.05 ± 1 | 928.59 ± 1 | 923.82 ± 1 | 919.01 ± 1 | 1384.6 ± 1.3 | 1365.8 ± 1.3 | 1344.4 ± 1.3 | 1323.4 ± 1.3
x2 = 0.3396 | 930 ± 1 | 925.53 ± 1 | 920.76 ± 1 | 915.96 ± 1 | 1376.1 ± 1.3 | 1356.7 ± 1.3 | 1335.2 ± 1.3 | 1314 ± 1.3
x2 = 0.3784 | 927.8 ± 1 | 923.32 ± 1 | 918.56 ± 1 | 913.76 ± 1 | 1370.3 ± 1.3 | 1350.6 ± 1.3 | 1328.9 ± 1.3 | 1307.6 ± 1.3
x2 = 0.4178 | 925.53 ± 1 | 921.03 ± 1 | 916.26 ± 1 | 911.46 ± 1 | 1364.5 ± 1.3 | 1344.5 ± 1.3 | 1322.6 ± 1.3 | 1301.2 ± 1.3
x2 = 0.462 | 922.91 ± 1 | 918.41 ± 1 | 913.62 ± 1 | 908.82 ± 1 | 1358.2 ± 1.3 | 1337.8 ± 1.3 | 1315.8 ± 1.3 | 1294.2 ± 1.3
x2 = 0.5009 | 920.56 ± 1 | 916.03 ± 1 | 911.24 ± 1 | 906.44 ± 1 | 1352.6 ± 1.3 | 1332.1 ± 1.3 | 1309.9 ± 1.3 | 1288.3 ± 1.3
x2 = 0.5486 | 917.59 ± 1 | 913.03 ± 1 | 908.24 ± 1 | 903.43 ± 1 | 1346.1 ± 1.3 | 1325.3 ± 1.3 | 1302.9 ± 1.3 | 1281.1 ± 1.3
x2 = 0.5814 | 915.51 ± 1 | 910.91 ± 1 | 906.13 ± 1 | 901.31 ± 1 | 1341.7 ± 1.4 | 1320.7 ± 1.3 | 1298.2 ± 1.3 | 1276.3 ± 1.3
x2 = 0.6379 | 911.8 ± 1 | 907.17 ± 1 | 902.35 ± 1 | 897.53 ± 1 | 1334.3 ± 1.4 | 1313.2 ± 1.3 | 1290.3 ± 1.3 | 1268.3 ± 1.3
x2 = 0.6899 | 908.28 ± 1 | 903.58 ± 1 | 898.75 ± 1 | 893.91 ± 1 | 1327.7 ± 1.4 | 1306.4 ± 1.4 | 1283.4 ± 1.3 | 1261.3 ± 1.3
x2 = 0.7389 | 904.83 ± 1 | 900.08 ± 1 | 895.23 ± 1 | 890.37 ± 1 | 1321.7 ± 1.4 | 1299.7 ± 1.4 | 1277 ± 1.3 | 1254.8 ± 1.3
x2 = 0.7804 | 901.82 ± 1 | 897.02 ± 1 | 892.14 ± 1 | 887.26 ± 1 | 1316.8 ± 1.4 | 1294.6 ± 1.4 | 1271.8 ± 1.3 | 1249.6 ± 1.3
x2 = 0.8345 | 897.76 ± 1 | 892.89 ± 1 | 887.96 ± 1 | 883.04 ± 1 | 1310.6 ± 1.4 | 1288.1 ± 1.4 | 1265.3 ± 1.4 | 1242.9 ± 1.3
x2 = 0.8929 | 893.19 ± 1 | 888.23 ± 1 | 883.23 ± 1 | 878.25 ± 1 | 1304.1 ± 1.4 | 1281.4 ± 1.4 | 1258.5 ± 1.4 | 1236.1 ± 1.3
